Series [1] addresses T1, Solute carrier organic anion transporter family member 1B1 (Homo sapiens, UniProt Q9Y6L6).
T1 sequence (Q9Y6L6 whole entry): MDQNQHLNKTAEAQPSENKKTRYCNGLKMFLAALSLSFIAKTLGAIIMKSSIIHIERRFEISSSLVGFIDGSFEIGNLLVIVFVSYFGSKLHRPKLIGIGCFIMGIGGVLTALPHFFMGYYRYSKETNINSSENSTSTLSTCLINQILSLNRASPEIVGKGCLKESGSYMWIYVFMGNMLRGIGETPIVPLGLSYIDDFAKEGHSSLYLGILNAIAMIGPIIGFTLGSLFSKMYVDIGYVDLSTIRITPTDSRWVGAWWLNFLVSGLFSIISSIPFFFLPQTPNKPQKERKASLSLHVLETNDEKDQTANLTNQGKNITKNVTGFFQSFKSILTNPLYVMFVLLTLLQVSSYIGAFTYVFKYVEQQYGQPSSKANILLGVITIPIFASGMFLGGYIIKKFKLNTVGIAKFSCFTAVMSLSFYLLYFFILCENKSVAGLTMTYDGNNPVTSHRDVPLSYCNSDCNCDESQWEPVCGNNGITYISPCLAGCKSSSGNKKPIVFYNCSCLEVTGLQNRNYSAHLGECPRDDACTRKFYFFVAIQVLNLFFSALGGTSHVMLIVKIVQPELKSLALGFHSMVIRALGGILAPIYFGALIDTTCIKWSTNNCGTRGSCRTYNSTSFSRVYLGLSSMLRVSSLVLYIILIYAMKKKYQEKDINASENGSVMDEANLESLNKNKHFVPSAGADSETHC
Particulars: chinese hamster, cho, 10 µM.

Series [2] concerns the target T2, Solute carrier organic anion transporter family member 1B3 (Homo sapiens, UniProt Q9NPD5).
T2 sequence (Q9NPD5 whole entry): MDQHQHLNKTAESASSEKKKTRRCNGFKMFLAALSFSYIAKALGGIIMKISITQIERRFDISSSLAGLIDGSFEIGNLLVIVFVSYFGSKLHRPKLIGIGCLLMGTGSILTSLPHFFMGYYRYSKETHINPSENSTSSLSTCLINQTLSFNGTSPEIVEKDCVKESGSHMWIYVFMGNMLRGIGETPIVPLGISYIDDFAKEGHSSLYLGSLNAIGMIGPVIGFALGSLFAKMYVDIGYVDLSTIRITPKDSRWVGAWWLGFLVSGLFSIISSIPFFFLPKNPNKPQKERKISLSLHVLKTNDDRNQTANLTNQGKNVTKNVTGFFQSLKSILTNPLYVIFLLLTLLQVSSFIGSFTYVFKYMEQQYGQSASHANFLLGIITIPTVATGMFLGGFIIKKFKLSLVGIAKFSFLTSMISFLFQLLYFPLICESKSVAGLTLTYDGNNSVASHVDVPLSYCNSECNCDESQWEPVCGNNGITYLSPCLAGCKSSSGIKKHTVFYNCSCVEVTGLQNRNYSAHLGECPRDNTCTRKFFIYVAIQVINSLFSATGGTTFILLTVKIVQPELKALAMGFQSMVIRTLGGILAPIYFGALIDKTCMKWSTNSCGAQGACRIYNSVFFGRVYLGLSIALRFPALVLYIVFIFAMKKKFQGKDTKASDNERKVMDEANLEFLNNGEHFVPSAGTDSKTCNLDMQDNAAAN
Conditions: chinese hamster, cho, 10 µM.

The results in this text go back to ChEMBL document CHEMBL3039007, “Structure-based identification of OATP1B1/3 inhibitors” (Mol Pharmacol, 2013).

As a reminder, the residual activity is the signal under treatment as a percentage of the control signal.

On to `CNc1ccc(C(=O)CC(O)CCC(C)C2OC(=O)CC(O)CC(=O)CC(O)CC(O)CC(O)CC(O)CC3(O)CC(O)C(C(=O)OC)C(CC(O[C@@H]4O[C@H](C)[C@@H](O)[C@H](N)[C@@H]4O)/C=C/C=C/C=C/C=C/C=C/C=C/C=C/C2C)O3)cc1.COC(=O)C1C(O)CC2(O)CC(O)CC(O)CC(O)CC(O)CC(=O)CC(O)CC(=O)OC(C(C)CCC(O)CC(=O)c3ccc(N)cc3)C(C)/C=C/C=C/C=C/C=C/C=C/C=C/C=C/C(O[C@@H]3O[C@H](C)[C@@H](O)[C@H](N)[C@@H]3O)CC1O2` (stereo partly drawn) [MEPARTRICIN], for which the residual activity in series [1] was 95.55%; in series [2], 86.4%.

Take `O=C(CCCCC(=O)Nc1c(I)cc(I)c(C(=O)O)c1I)Nc1c(I)cc(I)c(C(=O)O)c1I` [IODIPAMIDE]: the residual activity in series [1] amounted to 90.55%; in series [2], 60.87%.

Take `CCOP(=S)(OCC)Oc1nc(Cl)c(Cl)cc1Cl` [CHLORPYRIFOS]: the figures for the residual activity in series [1] and in series [2] were 140% and 127.1%, respectively.

On to `CC[C@@]1(O)C[C@H](O[C@H]2C[C@H](N(C)C)[C@H](O[C@H]3C[C@H](O)[C@H](O[C@H]4CCC(=O)[C@H](C)O4)[C@H](C)O3)[C@H](C)O2)c2c(cc3c(c2O)C(=O)c2c(O)cccc2C3=O)[C@H]1C(=O)OC` [ACLARUBICIN], for which the residual activity in series [1] was 95.52%; in series [2], 107.1%.

In the case of `CC1=CC(=O)c2ccccc2C1=O` [MENADIONE], the residual activity in series [1] was found to be 157.5%; in series [2] it was 112.1%.

As for `C[n+]1c2cc(N)ccc2cc2ccc(N)cc21.[Cl-]` [EUFLAVINE], the figures for the residual activity in series [1] and in series [2] were 105.1% and 93.94%, respectively.

Regarding `COc1cc2c(cc1OC)C(=O)OC2` [METAMECONINE], the residual activity in series [1] came to 92.42%; in series [2], 95.41%.

Consider `COc1cc(OC)c(OC)cc1C=O`, for which the residual activity came out at 48.71% in series [1] and 59.17% in series [2].

Consider `CC(=O)OCC(=O)[C@@]1(O)CC[C@H]2[C@@H]3CC[C@@H]4C[C@H](O)CC[C@]4(C)[C@H]3C(=O)C[C@@]21C`, for which the residual activity in series [1] worked out at 81.64%; in series [2], 80%.

On to `COc1cc(Cc2cnc(N)nc2N)cc(OC)c1OC` [TRIMETHOPRIM], for which the residual activity in series [1] turned out to be 82.92%; in series [2] it was 97.26%.

As for `Cl.NCCc1ccc(O)c(O)c1` [DOPAMINE HYDROCHLORIDE], the figures for the residual activity in series [1] and in series [2] were 66.46% and 73.49%, respectively.

With `CC(=O)Oc1cc(-c2coc3cc(OC(C)=O)c(OC(C)=O)c(OC(C)=O)c3c2=O)cc(OC(C)=O)c1OC(C)=O` [IRIGINOL HEXAACEATATE], the residual activity in series [1] came out at 102.1%; in series [2], 94.12%.

Take `Cl.N/C(=N\C(=O)c1nc(Cl)c(N)nc1N)NCc1ccccc1` [BENZAMIL HYDROCHLORIDE]: the residual activity is recorded as 93.84% in series [1] and 105% in series [2].

`Cc1cccc(Nc2ccccc2C(=O)O)c1C` [MEFENAMIC ACID]: the residual activity in series [1] turned out to be 63.23%; in series [2] it was 72.63%.

Consider `C[C@H](CCC(=O)O)[C@H]1CC[C@H]2[C@@H]3CC[C@@H]4C[C@H](O)CC[C@]4(C)[C@H]3CC[C@]12C` [LITHOCHOLIC ACID], for which the values for the residual activity in series [1] and in series [2] were 6.612% and 60.21%, respectively.

On to `CC(C)NNC(=O)c1ccncc1.O=S(=O)(O)O` [IPRONIAZID SULFATE], for which the residual activity in series [1] is given as 122.7%; in series [2] it was 101.8%.

With `NNC(=O)c1ccncc1` [ISONIAZID], the figures for the residual activity in series [1] and in series [2] were 88.4% and 98.94%, respectively.

`COc1cc(OC)c2c(OC)c(-c3ccc4c(c3)OCO4)c(=O)oc2c1` [DERRUSNIN]: the residual activity in series [1] was 141.7%; in series [2], 115.7%.

Consider `O=[N+]([O-])c1ccc(O)c([N+](=O)[O-])c1` [2,4-DINITROPHENOL], for which the residual activity in series [1] is 75.05%; in series [2] it was 78.36%.
